According to patent US20100137313A1 (ASTRAZENECA AB, priority 2008, published 2010):

Target: S. pneumoniae Topoisomerase IV ATPase (ParE) (Streptococcus pneumoniae serotype 4, UniProt Q59961)
Test: S. pneumoniae Topoisomerase IV ATPase inhibition
Type: biochemical
Conditions: values marked * are an average of two or more data points, 13 µM
In short: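 Phosphate-release ATPase assay: 1.25 nM ParE, 160 μM ATP, DNA-stimulated. Quench with malachite green/molybdate in 1 M HCl, read 650 nm; IC50 from 10-point dose series.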

S. pneumoniae Topoisomerase IV ATPase (ParE), sequence (Q59961 whole entry): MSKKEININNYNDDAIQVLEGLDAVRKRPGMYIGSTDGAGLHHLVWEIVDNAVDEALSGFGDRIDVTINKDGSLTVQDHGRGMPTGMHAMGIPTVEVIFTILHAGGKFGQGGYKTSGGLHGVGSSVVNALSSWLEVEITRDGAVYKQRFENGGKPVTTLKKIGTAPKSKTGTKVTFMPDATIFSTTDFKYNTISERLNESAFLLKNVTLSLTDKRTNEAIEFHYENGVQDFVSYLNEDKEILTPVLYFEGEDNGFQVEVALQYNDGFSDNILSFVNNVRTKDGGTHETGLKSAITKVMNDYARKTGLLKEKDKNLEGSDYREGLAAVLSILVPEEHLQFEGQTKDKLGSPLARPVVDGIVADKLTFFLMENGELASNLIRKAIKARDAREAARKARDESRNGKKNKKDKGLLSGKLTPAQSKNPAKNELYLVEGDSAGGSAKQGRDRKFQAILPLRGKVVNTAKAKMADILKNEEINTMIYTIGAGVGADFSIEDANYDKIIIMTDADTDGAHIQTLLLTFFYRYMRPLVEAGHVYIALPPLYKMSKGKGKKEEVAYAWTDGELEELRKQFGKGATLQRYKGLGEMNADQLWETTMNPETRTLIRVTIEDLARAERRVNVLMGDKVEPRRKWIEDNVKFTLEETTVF

With `COc1ccc(C(=O)O)cc1-c1cnc(Nc2ccc(F)c(Cl)c2)nc1-n1ccc(C(F)(F)F)n1` [Example 1128, 3-(2-(3-chloro-4-fluorophenylamino)-4-(3-(trifluoromethyl)-1H-pyrazol-1-yl)pyrimidin-5-yl)-4-methoxybenzoic acid] the “% Inh (13 μM) of S. pneumoniae Topoisomerase IV ATPase” value was 67%.

Same assay, conditions: values marked * are an average of two or more data points, read-out: % Inh (13 μM) of S. pneumoniae Topoisomerase IV ATPase

Point of comparison: `COCCNc1ncc(-c2cnc(Nc3ccc(F)c(Cl)c3)nc2-n2ccc(C(F)(F)F)n2)cc1C(=O)O` [Example 1079, 5-(2-(3-Chloro-4-fluorophenylamino)-4-(3-(trifluoromethyl)-1H-pyrazol-1-yl)pyrimidin-5-yl)-2-(2-methoxyethylamino)nicotinic acid], inhibition at 13 µM 100%. Against it:
- COc1cc(Nc2ncc(-c3cnc(OCCN4CCOCC4)c(C(=O)O)c3)c(-n3nc(C(F)(F)F)cc3C)n2)cc(OC)c1 [Example 1136, 5-(2-(3,5-dimethoxyphenylamino)-4-(5-methyl-3-(trifluoromethyl)-1H-pyrazol-1-yl)pyrimidin-5-yl)-2-(2-morpholinoethoxy)nicotinic acid] — lower, 99%
- COCCn1cc(-c2cnc(Nc3ccc(F)c(Cl)c3)nc2-n2ccc(C(F)(F)F)n2)cc(C(=O)O)c1=O [Example 1081, 5-(2-(3-Chloro-4-fluorophenylamino)-4-(3-(trifluoromethyl)-1H-pyrazol-1-yl)pyrimidin-5-yl)-1-(2-methoxyethyl)-2-oxo-1,2-dihydropyridine-3-carboxylic acid] — the same, 100%
- O=C(O)[C@@H]1C[C@H]1c1cccc(-c2cnc(Nc3ccc(F)c(Cl)c3)nc2-n2ccc(C(F)(F)F)n2)c1 (racemic) [Example 574, (1,2-trans)-2-(3-(2-(3-chloro-4-fluorophenylamino)-4-(3-(trifluoromethyl)-1H-pyrazol-1-yl)pyrimidin-5-yl)phenyl)cyclopropanecarboxylic acid] — lower, 96%
- CCCS(=O)(=O)NC(=O)c1cc(-c2cnc(Nc3cc(C)cc(C)c3)nc2-n2nc(C(F)(F)F)cc2C)cnc1OC [Example 825, 5-{2-[(3,5-dimethylphenyl)amino]-4-[5-methyl-3-(trifluoromethyl)-1H-pyrazol-1-yl]pyrimidin-5-yl}-2-methoxy-N-(propylsulfonyl)pyridine-3-carboxamide] — the same, 100%
- COCCCNc1nc(Nc2ccc(F)c(Cl)c2)ncc1-c1nc(-c2ccn(C)n2)c(C(=O)O)s1 [Example 512, 2-{2-[(3-chloro-4-fluorophenyl)amino]-4-[(3-methoxypropyl)amino]pyrimidin-5-yl}-4-(1-methyl-1H-pyrazol-3-yl)-1,3-thiazole-5-carboxylic acid] — the same, 100%
- CCn1cc(-c2cnc(Nc3ccc(F)c(Cl)c3)nc2-n2ccc(C(F)(F)F)n2)cc(C(=O)O)c1=O [Example 1085, 5-(2-(3-Chloro-4-fluorophenylamino)-4-(3-(trifluoromethyl)-1H-pyrazol-1-yl)pyrimidin-5-yl)-1-ethyl-2-oxo-1,2-dihydropyridine-3-carboxylic acid] — the same, 100%
- COc1cc(C)cc(Nc2ncc(-c3cc(C(=O)NS(C)(=O)=O)c(=O)n(C)c3)c(-n3ccc(C(F)(F)F)n3)n2)c1 [Example 1173, 5-{2-[(3-methoxy-5-methylphenyl)amino]-4-[3-(trifluoromethyl)-1H-pyrazol-1-yl]pyrimidin-5-yl}-1-methyl-N-(methylsulfonyl)-2-oxo-1,2-dihydropyridine-3-carboxamide] — the same, 100%
- COCC(COC)Oc1ncc(-c2cnc(Nc3ccc(F)c(Cl)c3)nc2-n2nc(C(F)(F)F)cc2C)cc1C(=O)O [Example 870, 5-(2-(3-chloro-4-fluorophenylamino)-4-(5-methyl-3-(trifluoromethyl)-1H-pyrazol-1-yl)pyrimidin-5-yl)-2-(1,3-dimethoxypropan-2-yloxy)nicotinic acid] — the same, 100%
- Fc1ccc(Nc2ncc(-c3cncnc3)c(-n3nccn3)n2)cc1Cl [Example 86, N-(3-chloro-4-fluorophenyl)-4-(2H-1,2,3-triazol-2-yl)-5,5′-bipyrimidin-2-amine] — lower, 91.1%
- O=C(O)/C=C/c1cncc(-c2cnc(Nc3ccc(F)c(Cl)c3)nc2-n2ccc(C(F)(F)F)n2)c1 [Example 1156, (E)-3-(5-(2-(3-chloro-4-fluorophenylamino)-4-(3-(trifluoromethyl)-1H-pyrazol-1-yl)pyrimidin-5-yl)pyridin-3-yl)acrylic acid] — lower, 88%
- O=C(O)/C=C/c1cccc(-c2cnc(Nc3ccc(F)c(Cl)c3)nc2-n2cc(-c3ccccn3)cn2)c1 [Example 567, (2E)-3-(3-{2-[(3-chloro-4-fluorophenyl)amino]-4-[4-(pyridin-2-yl)-1H-pyrazol-1-yl]pyrimidin-5-yl}phenyl)prop-2-enoic acid] — the same, 100%
- COCCCNc1nc(Nc2ccc(F)c(Cl)c2)ncc1-c1ccc(C(C)=O)s1 [Example 179, 1-(5-(2-(3-chloro-4-fluorophenylamino)-4-(3-methoxypropylamino)-pyrimidin-5-yl)thiophen-2-yl)ethanone] — lower, 93.9%
- COCCCNc1nc(Nc2ccc(F)c(Cl)c2)ncc1-c1nc(-c2ccc(C#N)cc2)cs1 [Example 498, 4-(2-{2-[(3-chloro-4-fluorophenyl)amino]-4-[(3-methoxypropyl)amino]pyrimidin-5-yl}-1,3-thiazol-4-yl)benzonitrile] — lower, 41%
- O=C(O)c1cncc(-c2cnc(Nc3ccc(F)c(Cl)c3)nc2-n2cc(-c3ccncn3)cn2)c1 [Example 536, 5-{2-[(3-chloro-4-fluorophenyl)amino]-4-[4-(pyrimidin-4-yl)-1H-pyrazol-1-yl]pyrimidin-5-yl}pyridine-3-carboxylic acid] — the same, 100%
- CCNC(=O)c1cncc(-c2cnc(Nc3ccc(F)c(Cl)c3)nc2-n2ccc(C(F)(F)F)n2)c1 [Example 1125, 5-[2-[(3-chloro-4-fluorophenyl)amino]-4-[3-(trifluoromethyl)pyrazol-1-yl]pyrimidin-5-yl]-N-ethylpyridine-3-carboxamide] — lower, 51%
- Cc1cc(C(F)F)nn1-c1nc(Nc2ccc(F)c(Cl)c2)ncc1-c1cncc(C(N)=O)c1 [Example 538, 5-{2-[(3-chloro-4-fluorophenyl)amino]-4-[3-(difluoromethyl)-5-methyl-1H-pyrazol-1-yl]pyrimidin-5-yl}pyridine-3-carboxamide] — the same, 100%
- COc1cc(Nc2ncc(-c3cnc(OC)c(C(=O)O)c3)c(-n3nc(C(F)(F)F)cc3C)n2)cc(OC)c1 [Example 677, 5-{2-[(3,5-dimethoxyphenyl)amino]-4-[5-methyl-3-(trifluoromethyl)-1H-pyrazol-1-yl]pyrimidin-5-yl}-2-methoxypyridine-3-carboxylic acid] — the same, 100%
- O=C(O)c1cncc(-c2cnc(Nc3ccc(F)c(Cl)c3)nc2-n2cc(Cl)cn2)c1 [Example 309, 5-{2-[(3-chloro-4-fluorophenyl)amino]-4-(4-chloro-1H-pyrazol-1-yl)pyrimidin-5-yl}pyridine-3-carboxylic acid] — lower, 69.4%
- COCCCNc1nc(Nc2ccc(F)c(Cl)c2)ncc1-c1nc(C(=O)O)cs1 [Example 912, 2-(2-(3-chloro-4-fluorophenylamino)-4-(3-methoxypropylamino)pyrimidin-5-yl)thiazol-4-carboxylic acid] — lower, 99%
- NC(=O)c1cncc(-c2cnc(Nc3ccc(F)c(Cl)c3)nc2NCCc2c[nH]cn2)c1 [Example 472, 5-(2-[(3-chloro-4-fluorophenyl)amino]-4-{[2-(1H-imidazol-4-yl)ethyl]amino}pyrimidin-5-yl)-pyridine-3-carboxamide] — the same, 100%
- Fc1ccc(Nc2ncc(-c3nc4ccccc4[nH]3)c(N3CCOCC3)n2)cc1Cl [Example 497, 5-(1H-benzimidazol-2-yl)-N-(3-chloro-4-fluorophenyl)-4-(morpholin-4-yl)pyrimidin-2-amine] — lower, 61%
- CC(C)(C)OC(=O)NCCCNc1nc(Nc2ccc(F)c(Cl)c2)ncc1-c1cncnc1 [Example 74, tert-butyl 3-(2-(3-chloro-4-fluorophenylamino)-5,5′-bipyrimidin-4-ylamino)propylcar-bamate] — higher, 103%
- Fc1ccc(Nc2ncc(-c3cncnc3)c(-n3cnc(C(F)(F)F)c3)n2)cc1Cl [Example 84, N-(3-chloro-4-fluorophenyl)-4-[4-(trifluoromethyl)-1H-imidazol-1-yl]-5,5′-bipyrimidin-2-amine] — lower, 79.6%
- Cc1cc(C(F)(F)F)nn1-c1nc(Nc2ccc(F)c(Cl)c2)ncc1-c1cncc(C(=O)NCCS(C)(=O)=O)c1 [Example 926, 5-(2-(3-chloro-4-fluorophenylamino)-4-(5-methyl-3-(trifluoromethyl)-1H-pyrazol-1-yl)pyrimidin-5-yl)-N-(2-(methylsulfonyl)ethyl)nicotinamide] — the same, 100%
- CCOC(=O)c1cncc(-c2cnc(Nc3ccc(F)c(Cl)c3)nc2NCCCc2nc3ccccc3[nH]2)c1 [Example 140, ethyl 5-(4-(3-(1H-benzo[d]imidazol-2-yl)propylamino)-2-(3-chloro-4-fluorophenylamino)pyrimidin-5-yl)nicotinate] — lower, 83.5%
- Fc1ccc(Nc2ncc(-c3cncnc3)c(NCC3CCCO3)n2)cc1Cl (stereo not drawn) [Example 51, N-(3-chloro-4-fluorophenyl)-N′-(oxolan-2-ylmethyl)-5-pyrimidin-5-ylpyrimidine-2,4-diamine] — lower, 88.8%
- COCCCNc1nc(Nc2ccc(F)c(Cl)c2)ncc1-c1nc(-c2cnoc2C)cs1 [Example 503, N^2-(3-chloro-4-fluorophenyl)-N^4-(3-methoxypropyl)-5-[4-(5-methylisoxazol-4-yl)-1,3-thiazol-2-yl]pyrimidine-2,4-diamine] — higher, 147%
- O=C(O)c1cc2ccc(-c3cnc(Nc4ccc(F)c(Cl)c4)nc3N3CCOCC3)cc2[nH]1 [Example 1063, 6-(2-(3-Chloro-4-fluorophenylamino)-4-morpholinopyrimidin-5-yl)-1H-indole-2-carboxylic acid] — lower, 94%
